Measurements from PubChem BioAssay (NCI).
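Tested at 5 concentrations; 48 h exposure; 96-well plates; endpoints linearly interpolated, else capped at highest concentration. GI50 is the concentration that inhibits growth by half. Definition used: TGI = concentration required for complete inhibition of growth.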

Legend:
Test in all cases: DTP human tumour cell line panel, 48 h; in the data active = GI50 below about 0.43 µM; inactive = the rest
UO-31 renal = test system: UO-31 renal
IGROV1 ovarian = test system: IGROV1 ovarian
SK-MEL-2 melanoma = test system: SK-MEL-2 melanoma
NCI/ADR-RES ovarian = test system: NCI/ADR-RES ovarian
MOLT-4 leukemia = test system: MOLT-4 leukemia
SF-268 CNS = test system: SF-268 CNS
NCI-H226 lung = test system: NCI-H226 lung
CCRF-CEM leukemia = test system: CCRF-CEM leukemia
SR leukemia = test system: SR leukemia
NCI-H460 lung = test system: NCI-H460 lung
HS 578T breast = test system: HS 578T breast
EKVX NSCLC = test system: EKVX NSCLC
HCT-15 colon = test system: HCT-15 colon
DU-145 prostate = test system: DU-145 prostate
OVCAR-8 ovarian = test system: OVCAR-8 ovarian
UACC-257 melanoma = test system: UACC-257 melanoma
HT29 colon = test system: HT29 colon
SK-MEL-28 melanoma = test system: SK-MEL-28 melanoma
UACC-62 melanoma = test system: UACC-62 melanoma
SK-MEL-5 melanoma = test system: SK-MEL-5 melanoma
HCC-2998 colon = test system: HCC-2998 colon
MDA-MB-435 = test system: MDA-MB-435
SN12C renal = test system: SN12C renal
HL-60(TB) leukemia = test system: HL-60(TB) leukemia
NCI-H23 lung = test system: NCI-H23 lung
OVCAR-3 ovarian = test system: OVCAR-3 ovarian
SW-620 colon = test system: SW-620 colon
SNB-19 CNS = test system: SNB-19 CNS
HCT-116 colon = test system: HCT-116 colon
SNB-75 CNS = test system: SNB-75 CNS
HOP-62 NSCLC = test system: HOP-62 NSCLC
NCI-H522 lung = test system: NCI-H522 lung
MDA-MB-468 breast = test system: MDA-MB-468 breast
MCF7 breast = test system: MCF7 breast
A498 renal = test system: A498 renal
A549 NSCLC = test system: A549 NSCLC
LOX IMVI melanoma = test system: LOX IMVI melanoma
HOP-92 NSCLC = test system: HOP-92 NSCLC
OVCAR-5 ovarian = test system: OVCAR-5 ovarian
KM12 colon = test system: KM12 colon
PC-3 prostate = test system: PC-3 prostate
RXF 393 renal = test system: RXF 393 renal
COLO 205 colon = test system: COLO 205 colon
M14 melanoma = test system: M14 melanoma
MALME-3M melanoma = test system: MALME-3M melanoma
ACHN renal = test system: ACHN renal
786-0 renal = test system: 786-0 renal
U251 CNS = test system: U251 CNS
T-47D breast = test system: T-47D breast
OVCAR-4 ovarian = test system: OVCAR-4 ovarian
CAKI-1 renal = test system: CAKI-1 renal
TK-10 renal = test system: TK-10 renal
SK-OV-3 ovarian = test system: SK-OV-3 ovarian

O=C(OCCOCCO)N(c1cccc(Br)c1)c1nc(SCCN2CCOCC2)nc2c1cnn2CC(Cl)c1ccc(Br)cc1 (stereo unspecified)
13.1 µM: TGI (NCI-H522 lung)
17.8 µM: TGI (MALME-3M melanoma)
70.7 µM: TGI (SK-MEL-5 melanoma)
5.05 µM: TGI (RXF 393 renal)
6.25 µM: TGI (HL-60(TB) leukemia)
15 µM: TGI (NCI-H23 lung)
6.51 µM: TGI (MOLT-4 leukemia)
7.63 µM: TGI (MDA-MB-468 breast)
3.21 µM: TGI (LOX IMVI melanoma)
22.1 µM: TGI (SK-MEL-2 melanoma)
24.8 µM: TGI (SNB-19 CNS)
12.1 µM: TGI (CCRF-CEM leukemia)
4.43 µM: TGI (COLO 205 colon)
> 100 µM: TGI (UO-31 renal) | TGI (IGROV1 ovarian) | TGI (NCI/ADR-RES ovarian) | TGI (SF-268 CNS) | TGI (NCI-H226 lung) | TGI (SR leukemia) | TGI (NCI-H460 lung) | TGI (HS 578T breast) | TGI (EKVX NSCLC) | TGI (DU-145 prostate) | TGI (OVCAR-8 ovarian) | TGI (UACC-257 melanoma) | TGI (HT29 colon) | TGI (HCC-2998 colon) | TGI (MDA-MB-435) | TGI (SN12C renal) | TGI (OVCAR-3 ovarian) | TGI (SW-620 colon) | TGI (HCT-116 colon) | TGI (SNB-75 CNS) | TGI (HOP-62 NSCLC) | TGI (MCF7 breast) | TGI (A498 renal) | TGI (A549 NSCLC) | TGI (HOP-92 NSCLC) | TGI (OVCAR-5 ovarian) | TGI (KM12 colon) | TGI (PC-3 prostate) | TGI (M14 melanoma) | TGI (ACHN renal) | TGI (786-0 renal) | TGI (U251 CNS) | TGI (T-47D breast) | TGI (OVCAR-4 ovarian) | TGI (CAKI-1 renal) | TGI (TK-10 renal) | TGI (SK-OV-3 ovarian)
10.1 µM: TGI (HCT-15 colon)
18 µM: TGI (SK-MEL-28 melanoma)
12.4 µM: TGI (UACC-62 melanoma)
inactive: GI50 (UO-31 renal) 4.57 µM | GI50 (IGROV1 ovarian) 8.25 µM | GI50 (SK-MEL-2 melanoma) 6.68 µM | GI50 (NCI/ADR-RES ovarian) 3.52 µM | GI50 (MOLT-4 leukemia) 2.31 µM | GI50 (SF-268 CNS) 4.82 µM | GI50 (NCI-H226 lung) 5.63 µM | GI50 (CCRF-CEM leukemia) 2.89 µM | GI50 (SR leukemia) 2 µM | GI50 (NCI-H460 lung) 3.77 µM | GI50 (HS 578T breast) 3.59 µM | GI50 (EKVX NSCLC) 5.55 µM | GI50 (HCT-15 colon) 2.84 µM | GI50 (DU-145 prostate) 9.88 µM | GI50 (OVCAR-8 ovarian) 6.93 µM | GI50 (UACC-257 melanoma) 10.5 µM | GI50 (HT29 colon) 2.73 µM | GI50 (SK-MEL-28 melanoma) 3.35 µM | GI50 (UACC-62 melanoma) 3.33 µM | GI50 (SK-MEL-5 melanoma) 10.1 µM | GI50 (HCC-2998 colon) 3.84 µM | GI50 (MDA-MB-435) 3.83 µM | GI50 (SN12C renal) 4.91 µM | GI50 (HL-60(TB) leukemia) 2.36 µM | GI50 (NCI-H23 lung) 3.27 µM | GI50 (OVCAR-3 ovarian) 5.54 µM | GI50 (SW-620 colon) 3.71 µM | GI50 (SNB-19 CNS) 9.17 µM | GI50 (HCT-116 colon) 2.62 µM | GI50 (SNB-75 CNS) 3.34 µM | GI50 (HOP-62 NSCLC) 4.41 µM | GI50 (NCI-H522 lung) 3.15 µM | GI50 (MDA-MB-468 breast) 2.47 µM | GI50 (MCF7 breast) 3.15 µM | GI50 (A498 renal) > 100 µM | GI50 (A549 NSCLC) 5.04 µM | GI50 (LOX IMVI melanoma) 1.72 µM | GI50 (HOP-92 NSCLC) 7.62 µM | GI50 (OVCAR-5 ovarian) 5.15 µM | GI50 (KM12 colon) 3.88 µM | GI50 (PC-3 prostate) 3.28 µM | GI50 (RXF 393 renal) 1.78 µM | GI50 (COLO 205 colon) 1.99 µM | GI50 (M14 melanoma) 3.67 µM | GI50 (MALME-3M melanoma) 3.17 µM | GI50 (ACHN renal) 3.9 µM | GI50 (786-0 renal) 2.51 µM | GI50 (U251 CNS) 6.39 µM | GI50 (T-47D breast) 5 µM | GI50 (OVCAR-4 ovarian) 3.05 µM | GI50 (CAKI-1 renal) 4.38 µM | GI50 (TK-10 renal) 93.4 µM | GI50 (SK-OV-3 ovarian) 5.21 µM
